Experimental data taken from paper PMC8698791, “Identification, Synthesis, Conformation and Activity of an Insulin-like Peptide from a Sea Anemone” (Biomolecules, 2021).
Positions of bridges follow the written chain, without caps; N, C: chain ends. Chains are numbered I, II in the order given. No end group written: not given here.

What was measured:
[1] = biological target: T1, human insulin receptor isoform B (IR-B) (Homo sapiens, UniProt P06213); test: Competition binding assay with europium-labelled insulin on solubilized, immunocaptured IR-B; conditions: even at 10^−5 M concentration; 16 h at 4 °C, n ≥ 3
T1 construct: expressed in transfected cells; host or cells: IR-B cells (IGF-IR null mouse fibroblasts overexpressing human IR-B)
Method: (§1) IGF-IR and IR-B were solubilized from cells using lysis buffer (20 mM HEPES, 150 mM NaCl, 1.5 mM MgCl2, 10% (v/v) glycerol, 1% (v/v) Triton X-100, 1 mM EGTA (pH 7.5)) for 1 h at 4 °C, and lysates were centrifuged for 10 min at 3500 rpm. Solubilized IGF-1R or IR-B (100 µL) was used to coat each well of a white Greiner Lumitrac 600 plate previously coated with 24–31 anti-human IGF-1R antibody or 83-7 anti-human IR antibody. […] Wells were washed three times with 20 mM Tris, 150 mM NaCl, 0.1% (v/v) Tween 20, and then DELFIA enhancement solution (100 µL) was added. Time-resolved fluorescence was measured with 340 nm excitation and 612 nm emission filters using a Victor X4, 2030 Multilabel Reader (Perkin Elmer). All assays were repeated at least 3 times with 3 technical replicates each, except for the IlO1_i1 peptide binding IGF-IR, where 2 assays were conducted. Mean IC50 values were calculated using the statistical software package Prism v9.0.0 (GraphPad Software) after curve fitting with a nonlinear regression (one-site) model.

KV11.1 (hERG) = test: Two-electrode voltage-clamp on Xenopus oocytes expressing KV11.1 (hERG); assay type: cell-based; conditions: human, Xenopus laevis oocytes expressing KV11.1 (hERG), pH 7.4, 8 µM peptide, 18–22 °C, n ≥ 3, read-out: Inhibitory activity on KV11.1 (hERG) current
Text: (§2) For the expression of KV channels (mammalian rKV1.2, hKV1.3, rKV2.1, hKV3.1, rKV4.2, hKV7.2/hKV7.3, hKV10.1, hERG and Shaker IR from the fruit fly Drosophila melanogaster), NaV channels (mammalian rNaV1.2, rNaV1.3, rNaV1.4, hNaV1.5, rNaV1.6, hNaV1.7, BgNaV from the cockroach Blattella germanica, as well as the auxiliary subunits rβ1, hβ1), and the hCaV3.1 channel in Xenopus oocytes, the linearized plasmids were transcribed using the T7 or SP6 mMESSAGE-mMACHINE transcription kit (Ambion, Carlsbad, CA, USA). The harvesting of stage V–VI oocytes from an anaesthetized female Xenopus laevis frog was described previously and was in compliance with the regulations of the European Union (EU) concerning the welfare of laboratory animals as declared in Directive 2010/63/EU. The use of X. laevis oocytes was approved by the Animal Ethics Committee of the KU Leuven with the licence number P186/2019. […]
(§3) Two-electrode voltage-clamp recordings were performed at room temperature (18–22 °C) using a Geneclamp 500 amplifier (Molecular Devices, Downingtown, PA, USA) controlled by a pClamp data acquisition system (Axon Instruments, Union City, CA, USA). Whole cell currents from oocytes were recorded 1–7 days after injection. […]

rNaV1.4 = test: Two-electrode voltage-clamp on Xenopus oocytes expressing NaV1.4; assay type: cell-based, rat; conditions: 8 µM peptide, Xenopus laevis oocytes, 18–22 °C, n ≥ 3
Text: as §2, §3

hKV3.1 = test: Two-electrode voltage-clamp on Xenopus oocytes expressing KV3.1; assay type: cell-based, human; conditions: 8 µM peptide, Xenopus laevis oocytes, 18–22 °C, n ≥ 3
Text: as §2, §3

human IGF-1R = biological target: T2, human IGF-1R (Homo sapiens, UniProt P08069); test: Competition binding assay with europium-labelled IGF-I on solubilized, immunocaptured IGF-1R; conditions: 16 h at 4 °C, n = 2 assays
T2 construct: expressed in transfected cells; host or cells: P6 cells (BALB/c3T3 mouse fibroblasts overexpressing IGF-IR)
Method: as §1

rKV1.2 = test: Two-electrode voltage-clamp on Xenopus oocytes expressing KV1.2; assay type: cell-based, rat; conditions: 8 µM peptide, Xenopus laevis oocytes, 18–22 °C, n ≥ 3
Text: as §2, §3

hKV1.3 = test: Two-electrode voltage-clamp on Xenopus oocytes expressing KV1.3; assay type: cell-based, human; conditions: 8 µM peptide, Xenopus laevis oocytes, 18–22 °C, n ≥ 3
Text: as §2, §3

T1 sequence (P06213 28-758 limits assumed): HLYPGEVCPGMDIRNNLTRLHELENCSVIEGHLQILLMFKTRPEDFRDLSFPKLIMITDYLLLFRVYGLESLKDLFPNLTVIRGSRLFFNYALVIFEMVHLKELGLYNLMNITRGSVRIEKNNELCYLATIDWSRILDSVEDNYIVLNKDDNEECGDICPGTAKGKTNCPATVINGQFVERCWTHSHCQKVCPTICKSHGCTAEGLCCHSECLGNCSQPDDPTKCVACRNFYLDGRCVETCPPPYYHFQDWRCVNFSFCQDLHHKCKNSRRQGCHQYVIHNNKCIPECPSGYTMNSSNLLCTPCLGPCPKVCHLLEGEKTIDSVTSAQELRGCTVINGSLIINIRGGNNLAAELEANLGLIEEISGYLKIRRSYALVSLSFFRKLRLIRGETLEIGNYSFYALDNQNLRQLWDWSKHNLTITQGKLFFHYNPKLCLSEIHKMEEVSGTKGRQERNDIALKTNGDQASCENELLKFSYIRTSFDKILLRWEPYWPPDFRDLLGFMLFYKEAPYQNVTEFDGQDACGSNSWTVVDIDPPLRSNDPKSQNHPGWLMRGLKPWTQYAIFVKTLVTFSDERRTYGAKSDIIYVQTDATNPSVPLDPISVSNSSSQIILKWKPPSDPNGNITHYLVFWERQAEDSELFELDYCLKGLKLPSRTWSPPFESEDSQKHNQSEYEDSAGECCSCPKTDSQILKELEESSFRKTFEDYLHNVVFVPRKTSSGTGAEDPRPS
T1 sequence (P06213 763-1382 partner limits assumed): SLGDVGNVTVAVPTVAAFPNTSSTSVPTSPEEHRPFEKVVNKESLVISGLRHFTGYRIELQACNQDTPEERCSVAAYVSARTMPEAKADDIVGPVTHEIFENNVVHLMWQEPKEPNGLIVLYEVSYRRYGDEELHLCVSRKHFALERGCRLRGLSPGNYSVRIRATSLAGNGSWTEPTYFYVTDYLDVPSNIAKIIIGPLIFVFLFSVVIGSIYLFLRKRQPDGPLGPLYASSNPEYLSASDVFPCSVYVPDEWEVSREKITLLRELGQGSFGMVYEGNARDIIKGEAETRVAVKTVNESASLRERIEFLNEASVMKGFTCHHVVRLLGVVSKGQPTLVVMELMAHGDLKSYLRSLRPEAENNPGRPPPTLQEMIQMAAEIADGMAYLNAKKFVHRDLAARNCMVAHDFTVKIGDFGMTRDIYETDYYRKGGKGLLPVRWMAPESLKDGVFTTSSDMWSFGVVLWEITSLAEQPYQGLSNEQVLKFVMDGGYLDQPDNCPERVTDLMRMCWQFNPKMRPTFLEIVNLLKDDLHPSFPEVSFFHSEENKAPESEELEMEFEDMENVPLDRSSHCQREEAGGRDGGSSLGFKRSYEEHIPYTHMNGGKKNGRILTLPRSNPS
T2 sequence (P08069 31-736 limits assumed): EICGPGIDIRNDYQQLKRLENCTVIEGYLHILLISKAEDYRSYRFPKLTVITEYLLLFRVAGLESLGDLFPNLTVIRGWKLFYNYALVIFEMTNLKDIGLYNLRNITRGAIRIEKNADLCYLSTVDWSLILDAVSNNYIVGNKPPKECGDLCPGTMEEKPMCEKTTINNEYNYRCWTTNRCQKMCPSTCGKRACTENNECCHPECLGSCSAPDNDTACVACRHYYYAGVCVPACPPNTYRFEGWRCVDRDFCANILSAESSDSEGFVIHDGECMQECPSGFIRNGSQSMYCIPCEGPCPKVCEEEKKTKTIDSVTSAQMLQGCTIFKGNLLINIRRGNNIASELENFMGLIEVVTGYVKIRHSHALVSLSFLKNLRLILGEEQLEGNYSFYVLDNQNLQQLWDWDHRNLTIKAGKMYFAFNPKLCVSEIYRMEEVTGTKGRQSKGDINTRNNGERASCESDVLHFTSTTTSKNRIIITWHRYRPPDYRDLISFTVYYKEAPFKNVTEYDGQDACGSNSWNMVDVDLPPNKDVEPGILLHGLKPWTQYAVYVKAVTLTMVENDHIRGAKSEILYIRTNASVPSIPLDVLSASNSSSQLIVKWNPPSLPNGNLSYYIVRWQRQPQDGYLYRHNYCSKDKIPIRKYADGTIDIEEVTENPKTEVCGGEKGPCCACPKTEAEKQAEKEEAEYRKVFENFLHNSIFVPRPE
T2 sequence (P08069 741-1367 partner limits assumed): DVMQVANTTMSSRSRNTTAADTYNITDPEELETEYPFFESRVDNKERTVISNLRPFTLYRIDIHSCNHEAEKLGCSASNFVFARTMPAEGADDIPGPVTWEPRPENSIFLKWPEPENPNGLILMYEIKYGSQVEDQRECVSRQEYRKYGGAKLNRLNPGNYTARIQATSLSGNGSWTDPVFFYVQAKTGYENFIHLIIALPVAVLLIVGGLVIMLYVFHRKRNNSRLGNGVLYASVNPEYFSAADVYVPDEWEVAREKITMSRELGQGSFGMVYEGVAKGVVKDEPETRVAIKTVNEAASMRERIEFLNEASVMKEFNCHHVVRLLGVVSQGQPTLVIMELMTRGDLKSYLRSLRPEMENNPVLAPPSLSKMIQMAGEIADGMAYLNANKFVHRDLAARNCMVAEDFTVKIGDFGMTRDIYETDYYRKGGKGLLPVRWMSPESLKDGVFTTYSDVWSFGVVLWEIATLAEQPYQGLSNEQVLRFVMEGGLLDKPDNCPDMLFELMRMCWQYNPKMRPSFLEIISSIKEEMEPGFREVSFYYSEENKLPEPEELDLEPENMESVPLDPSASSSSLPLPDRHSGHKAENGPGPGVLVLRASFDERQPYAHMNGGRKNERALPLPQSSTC

**Q.** With “I: INESPQTNIDYRICGDQITQKYTELCGNPAAG / II: TDIVEECCAEGCKAEEVKEYCI (disulfide I:14-II:8, I:26-II:21, II:7-II:12) [IlO1_i1]” as the substance, how does the “Ability to compete with europium-labelled insulin bound to IR-B” value [1] read?
**A.** Its value is “unable to compete”.

**Q.** And the inhibition at 8 µM (KV11.1 (hERG))?
**A.** The inhibition at 8 µM was 30.5 ± 1.6%.

**Q.** And the “Inhibitory activity on NaV 1.4 current” value (rNaV1.4)?
**A.** Its value is 14.2 ± 2.2%.

**Q.** And the “Inhibitory activity on KV3.1 current” value (hKV3.1)?
**A.** Its value is 12.7 ± 2.6%.

**Q.** And the “Ability to compete with europium-labelled IGF-I binding to the IGF-1R” value (human IGF-1R)?
**A.** Its value is “did not compete”.

**Q.** And the “Inhibitory activity on KV1.2 current” value (rKV1.2)?
**A.** The value was 3.6 ± 1.9%.

**Q.** What about the “Inhibitory activity on KV1.3 current” value (hKV1.3) of the same substance?
**A.** The value was 11.9 ± 0.9%.
